From US20070275382A1, “Biomarkers for the Efficacy of Somatostatin Analogue Treatment” (priority 2003, published 2007)
*1 amine or outer side, *2 acyl side, *3 side chain or, on linkers, in order; H or OH if unused. Where a SMILES comes first, the peptide text is derived from it. Side-chain parts run from the residue outwards. [ ]: non-standard residue; d: D form. The star is where a group is joined. Ethylenediamine = C(CN[*:2])N[*:1]; Hyp = O=C(O)[CH]1C[CH](O)CN1; Phg = N[CH](C(=O)O)c1ccccc1; CO = O=C([*:1])[*:2]; Bn = c1ccc(C*)cc1

Columns and labels:
[1] = tested on: Spleen; assay: Microarray gene expression profiling (HG-U95A), spleen; type: in vivo, cynomolgus monkeys
Procedure: Origin of tissue and processing. Male and female cynomolgus monkeys received subcutaneously pasireotide (100 μg/animal/day) or the vehicle for 14 days. On day 15, all animals were sacrificed and tissues for RNA extraction were immediately snap-frozen and kept at −80° C. until processing.
RNA expression profiling was conducted by means of the HG-U95A gene expression probe array (Affymetrix; Santa Clara, Calif. USA), containing more than 12,600 probe sets interrogating primarily full-length human genes and also some control probe sets. The experiment was conducted according to the recommendations of the manufacturer. Briefly, total RNA was obtained by acid guanidinium thiocyanate-phenol-chloroform extraction (Trizol®, Invitrogen Life Technologies, San Diego, Calif. USA) from each frozen tissue section. The total RNA was then purified on an affinity resin (Rneasy®, Qiagen) and quantified. Double stranded cDNA was synthesized with a starting amount of approximately 5 μg full-length total RNA using the Superscript® Choice System (Invitrogen Life Technologies, Carlsbad, Calif. USA) in the presence of a T7-(dT)24 DNA oligonucleotide primer. Following synthesis, the cDNA was purified by phenol/chloroform/isoamyl alcohol extraction and ethanol precipitation. The purified cDNA was then transcribed in vitro using the BioArray® High Yield RNA Transcript Labeling Kit (ENZO, Farmingdale, N.Y. USA) in the presence of biotinylated ribonucleotides form biotin labelled cRNA. The labelled cRNA was then purified on an affinity resin (Rneasy®, Qiagen), quantified and fragmented. An amount of approximately 10 μg labelled cRNA was hybridized for 16 hours at 45° C. to an expression probe array. The array was then washed and stained twice with streptavidin-phycoerythrin (Molecular Probes,) using the GeneChip® Fluidics Workstation 400 (Affymetrix, Santa Clara, Calif. USA). The array was then scanned twice using a confocal laser scanner (GeneArray® Scanner, Agilent, Palo Alto, Calif. USA) resulting in one scanned image. This resulting “.dat-file” was processed using the MAS4 program (Affymetrix) into a “.cel-file”. The “.cel file” was captured and loaded into the Affymetrix GeneChip® Laboratory Information Management System (LIMS). The LIMS database is connected to a UNIX Sun Solaris server through a network filing system that allows for the average intensities for all probes cells (CEL file) to be downloaded into an Oracle database (NPGN). Raw data was converted to expression levels using a “target intensity” of 150. The data were evaluated for quality control and loaded in the GeneSpring® software 4.2.4 (Silicon Genetics, Calif. USA) for analysis.
On the human Affymetrix HGU95Av2 chip, probe sets for individual genes contain 20 oligonucleotide pairs, each composed of a “perfect match” 25-mer and a “mismatch” 25-mer differing from the “perfect” match oligonucleotide at a single base. After probe labelling, hybridization, and laser scanning, the expression level was estimated by averaging the differences in signal intensity measured by oligonucleotide pairs of a given probe (AvgDiff value). The fold changes and directions were calculated for selected genes, from the differences of the AvgDiff values between controls and treated.
To identify genes that were impacted by pasireotide, the dataset was initially filtered to exclude in a first wave of analysis, genes whose values were systematically in the lower expression ranges where the experimental noise is high (at least 80 in a number of experiments corresponding to the smallest number of replicas of any experimental point). In a second round of selection a threshold p-value of 0.05 (based on a t-test) identified differences between treated and control based on a two component error model (Global Error Model) and, whenever possible, with a stepdown correction for multi-hypothesis testing (Benjamini and Hochberg false discovery rate). […]

[2] = biological target: T1, hSST-4 (Homo sapiens, UniProt P31391); details: background statement; cited from earlier work
T1 construct: expressed in transfected cells; host or cells: CHO cells
T1 sequence (P31391 whole entry): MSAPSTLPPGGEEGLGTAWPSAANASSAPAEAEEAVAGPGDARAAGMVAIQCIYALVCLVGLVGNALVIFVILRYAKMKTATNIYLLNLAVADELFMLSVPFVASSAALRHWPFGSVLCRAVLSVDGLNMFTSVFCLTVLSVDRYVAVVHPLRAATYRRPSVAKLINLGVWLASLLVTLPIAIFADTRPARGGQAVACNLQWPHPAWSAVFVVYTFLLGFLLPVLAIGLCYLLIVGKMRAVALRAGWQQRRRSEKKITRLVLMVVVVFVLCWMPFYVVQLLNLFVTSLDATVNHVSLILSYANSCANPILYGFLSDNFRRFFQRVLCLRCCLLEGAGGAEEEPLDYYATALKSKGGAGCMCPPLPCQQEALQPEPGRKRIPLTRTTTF

[3] = ↑ increase, treated vs controls
[4] = ↓ decrease, treated vs controls

NCCCCC1NC(=O)C(Cc2c[nH]c3ccccc23)NC(=O)C(c2ccccc2)NC(=O)C2CC(OC(=O)NCCN)CN2C(=O)C(Cc2ccccc2)NC(=O)C(Cc2ccc(OCc3ccccc3)cc2)NC1=O (stereo not drawn) [Pasireotide, cyclo[4-(NH2—C2H4—NH—CO—O)Pro-Phg-DTrp-Lys-Tyr(4-Bzl)-Phe]] (cyclo(F[Hyp]([CO-Ethylenediamine])[Phg]WKY(Bn)); configuration not given here)
IGF-1 expression level, AvgDiff (range) ([1]; 0.1 mg/animal/14day): 85 (52 to 125)
IGFBP6 expression level, AvgDiff (range) ([1]; 0.1 mg/animal/14day): 1,043 (853 to 1,155)
SSTR2 expression level, AvgDiff (range) ([1]; 0.1 mg/animal/14day): 93 (87 to 95)
ATPase, Na+/K+ transporting, β 1 polypeptide RNA expression fold change [1, 3]: polypeptide ↑ x2.5
Arginine vasopressin receptor 1B RNA expression fold change [1, 3]: receptor 1B ↑ x2
Bcl-2 binding component 3 RNA expression fold change [1, 3]: ↑ x2.5
Ca++ channel, voltage-dependent, α 2/δ subunit 1 RNA expression fold change [1, 3]: subunit 1 ↑ x2
Ca++ channel, voltage-dependent, α 2/δ subunit 2 RNA expression fold change [1, 3]: ↑ x1.5
Calcium/calmodulin-dependent protein kinase (CaM kinase) II β RNA expression fold change [1, 3]: II β ↑ x2
Calmodulin 1 (phosphorylase kinase, δ) RNA expression fold change [1, 3]: kinase, δ) ↑ x2
Calmodulin 2 (phosphorylase kinase, δ) RNA expression fold change [1, 3]: kinase, δ) ↑ x1.5
Caspase 8, apoptosis-related cysteine protease RNA expression fold change [1, 3]: ↑ x2.5
Cdk 2 RNA expression fold change [1, 3]: Cdk 2 ↑ x1.5
Cdk 5, regulatory subunit 1 (p35) RNA expression fold change [1, 3]: ↑ x2
Cdk 6 RNA expression fold change [1, 3]: Cdk 6 ↑ x3
Cyclin D2 RNA expression fold change [1, 3]: Cyclin D2 ↑ x1.5
Death-associated protein RNA expression fold change [1, 3]: ↑ x1.5
Follistatin-like 1 RNA expression fold change [1, 3]: ↑ x1.5
Gastric inhibitory polypeptide receptor RNA expression fold change [1, 3]: receptor ↑ x2
HGF activator inhibitor precursor RNA expression fold change [1, 3]: ↑ x1.5
IFN regulatory factor 2 RNA expression fold change [1, 3]: factor 2 ↑ x3.5
IFN-inducible RNA-dependent protein kinase RNA expression fold change [1, 3]: ↑ x2.5
IFNγ receptor 2 (IFNγ transducer 1) RNA expression fold change [1, 3]: ↑ x1.5
IFNγ responsive transcript RNA expression fold change [1, 3]: ↑ x2
IGF-1 RNA expression fold change [1, 3]: IGF-1 ↑ x1.5
IGFBP6 RNA expression fold change [1, 3]: IGFBP6 ↑ x2.5
IL 1 receptor-like 1 RNA expression fold change [1, 3]: ↑ x2
IL-8 receptor type B RNA expression fold change [1, 3]: ↑ x1.5
IP-4-phosphatase, type 1, isoform b RNA expression fold change [1, 3]: ↑ x2
K+ large conductance Ca++-activated channel, subfamily M, β member 1 RNA expression fold change [1, 3]: ↑ x2.5
LTb4 (chemokine receptor-like 1) RNA expression fold change [1, 3]: receptor-like 1) ↑ x3
PDGF, α polypeptide RNA expression fold change [1, 3]: polypeptide ↑ x2.5
PDGFR, α polypeptide RNA expression fold change [1, 3]: polypeptide ↑ x1.5
PI-3-kinase, class 2, β polypeptide RNA expression fold change [1, 3]: ↑ x1.5
PI-3-kinase, class 3 RNA expression fold change [1, 3]: class 3 ↑ x2
PKC, α binding protein RNA expression fold change [1, 3]: protein ↑ x2
PLA2 RNA expression fold change [1, 3]: PLA2 ↑ x2
Phosphatidylinositol glycan, class B RNA expression fold change [1, 3]: ↑ x1.5
Programmed cell death 10 RNA expression fold change [1, 3]: death 10 ↑ x1.5
Putative chemokine receptor; GTP-binding protein RNA expression fold change [1, 3]: binding protein ↑ x2.5
Rb binding protein RNA expression fold change [1, 3]: protein ↑ x2
Rb-binding protein 8 RNA expression fold change [1, 3]: protein 8 ↑ x1.5
S-phase kinase-associated protein 1A (p19A) RNA expression fold change [1, 3]: 1A (p19A) ↑ x2
SSTR2 RNA expression fold change [1, 3]: SSTR2 ↑ x2
Solute carrier family 9 (Na+/H+ exchanger) isoform 3 regulatory factor 1 RNA expression fold change [1, 3]: ↑ x10.5
TGF induced protein RNA expression fold change [1, 3]: protein ↑ x1.5
TNF (cachectin) RNA expression fold change [1, 3]: ↑ x2
TNFR superfamily, member 12 RNA expression fold change [1, 3]: member 12 ↑ x1.5
Tumour protein p53-binding protein RNA expression fold change [1, 3]: protein ↑ x1.5
VEGF RNA expression fold change [1, 3]: VEGF ↑ x1.5
Vasodilatator-stimulated phosphoprotein RNA expression fold change [1, 3]: phosphoprotein ↑ x2
β adrenergic receptor kinase 1 RNA expression fold change [1, 3]: kinase 1 ↑ x3
S-phase kinase-associated protein 1A RNA expression fold change ([1]; ↑ increase, treated vs controls, second listing, without (p19A)): 1A ↑ x2
Adrenergic, α-2C-, receptor RNA expression fold change [1, 4]: ↓ x2
Cyclin I RNA expression fold change [1, 4]: Cyclin I ↓ x1.5
Dopamine receptor D4 RNA expression fold change [1, 4]: receptor D4 ↓ x2
EGF (β-urogastrone) RNA expression fold change [1, 4]: urogastrone) ↓ x2
K+ voltage-gated channel, shaker-related subfamily, member 3 RNA expression fold change [1, 4]: member 3 ↓ x3
Nuclear factor of activated T-cells, cytoplasmic, calcineurin-dependent 1 RNA expression fold change [1, 4]: dependent 1 ↓ x5
PI-3-kinase, catalytic, α polypeptide RNA expression fold change [1, 4]: polypeptide ↓ x2.5
PTHR 1 RNA expression fold change [1, 4]: PTHR 1 ↓ x2.5
TGFβ receptor III (betaglycan, 300 kD) RNA expression fold change [1, 4]: 300 kD) ↓ x1.5
binding to SSTR4 [2]: binds to all somatostatin receptors except SSTR4
